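Interpolation was linear, between the two tested concentrations surrounding the appropriate level; five concentrations were tested over 48 hours in 96-well plates. GI50 = concentration required for 50% inhibition of growth.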 Activity calls are given as the source filed them. No stated cut-off is given here; in the data, active = GI50 up to about 1.1 µM and inactive = higher.
Assays:
Assay in all cases: NCI anticancer screen, dose series, 48 h
786-0 = system: 786-0
A498 = system: A498
A549 = system: A549
ACHN = system: ACHN
CAKI-1 = system: CAKI-1
CCRF-CEM = system: CCRF-CEM
COLO 205 = system: COLO 205
DLD-1 = system: DLD-1
DMS-114 = system: DMS-114
DMS-273 = system: DMS-273
EKVX = system: EKVX
HCC 2998 = system: HCC 2998
HCT-116 = system: HCT-116
HCT-15 = system: HCT-15
HL-60 = system: HL-60
HOP-18 = system: HOP-18
HOP-62 = system: HOP-62
HOP-92 = system: HOP-92
HT-29 = system: HT-29
IGROV-1 = system: IGROV-1
K562 = system: K562
KM-20L2 = system: KM-20L2
KM12 = system: KM12
LOX IMVI = system: LOX IMVI
LXFL 529 = system: LXFL 529
M14 = system: M14
MOLT-4 = system: MOLT-4
Malme-3M = system: Malme-3M
NCI-H226 = system: NCI-H226
NCI-H23 = system: NCI-H23
NCI-H460 = system: NCI-H460
NCI-H522 = system: NCI-H522
OVCAR-3 = system: OVCAR-3
OVCAR-4 = system: OVCAR-4
OVCAR-5 = system: OVCAR-5
OVCAR-8 = system: OVCAR-8
RPMI-8226 = system: RPMI-8226
RXF 393 = system: RXF 393
SF-268 = system: SF-268
SF-295 = system: SF-295
SK-MEL-28 = system: SK-MEL-28
SK-MEL-2 = system: SK-MEL-2
SK-MEL-5 = system: SK-MEL-5
SK-OV-3 = system: SK-OV-3
SN12C = system: SN12C
SNB-19 = system: SNB-19
SNB-75 = system: SNB-75
SR = system: SR
SW-620 = system: SW-620
TK-10 = system: TK-10
U-251 = system: U-251
UACC-257 = system: UACC-257
UACC-62 = system: UACC-62
UO-31 = system: UO-31
XF498 = system: XF498

Measured: GI50

Cc1c(/C=N/N(C)C)oc2c1cc(O)c1ncccc12
2.31 µM: HCT-15
inactive: 786-0 6.28 µM | A498 25.8 µM | A549 5.01 µM | ACHN 7.89 µM | CAKI-1 4.03 µM | CCRF-CEM 1.27 µM | COLO 205 35.8 µM | DLD-1 3.67 µM | DMS-114 2.87 µM | DMS-273 5.31 µM | EKVX 2.11 µM | HCC 2998 14 µM | HCT-116 2.99 µM | HL-60 2.13 µM | HOP-18 1.77 µM | HOP-62 7.35 µM | HOP-92 10.7 µM | HT-29 41.2 µM | IGROV-1 14.3 µM | K562 3.86 µM | KM-20L2 34.5 µM | KM12 18.2 µM | LOX IMVI 4.5 µM | LXFL 529 7.98 µM | M14 3.25 µM | MOLT-4 2.59 µM | Malme-3M 11.2 µM | NCI-H226 13.2 µM | NCI-H23 3.61 µM | NCI-H460 4.5 µM | NCI-H522 2.38 µM | OVCAR-3 2.66 µM | OVCAR-4 4.75 µM | OVCAR-5 7.24 µM | OVCAR-8 4.07 µM | RPMI-8226 5.05 µM | RXF 393 5.97 µM | SF-268 4.01 µM | SF-295 9.91 µM | SK-MEL-28 22.5 µM | SK-MEL-2 12.6 µM | SK-MEL-5 6.9 µM | SK-OV-3 6.87 µM | SN12C 3.96 µM | SNB-19 14.1 µM | SNB-75 6.92 µM | SR 2.77 µM | SW-620 4.61 µM | TK-10 28.8 µM | U-251 13.1 µM | UACC-257 5.36 µM | UACC-62 13.8 µM | UO-31 2.08 µM | XF498 8.38 µM

Reference: ChEMBL document CHEMBL1201862, “PubChem BioAssay data set” (2004)
